In the supplement of paper PMC11451515:

Tested on: P12-Ichikawa
Assay: cell viability relative to DMSO control; higher = less cytotoxic
Details: 48 h
How it was run: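 Library compounds in DMSO were pin-dosed into 1536-well plates (5 μl) holding NOMO1 or SEM (500 cells/well) or P12-Ichikawa (1000 cells/well) leukemia cells, across an 11-point threefold series of 47 μM to 0.79 nM. Each cell line had been adapted for at least four passages in each medium. CellTiter-Glo One luminescence was read after 48 h at 37°C. Viability is the per-plate percentage relative to DMSO wells, with cell-free wells as background.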

[1] = HPLM + 10% dialyzed FBS, 0.000781 µM
[2] = HPLM + 10% dialyzed FBS, 0.00234 µM
[3] = HPLM + 10% dialyzed FBS, 0.00702 µM
[4] = HPLM + 10% dialyzed FBS, 0.0211 µM
[5] = HPLM + 10% dialyzed FBS, 0.0632 µM
[6] = HPLM + 10% dialyzed FBS, 0.19 µM
[7] = HPLM + 10% dialyzed FBS, 0.569 µM
[8] = HPLM + 10% dialyzed FBS, 1.71 µM
[9] = HPLM + 10% dialyzed FBS, 5.12 µM
[10] = HPLM + 10% dialyzed FBS, 15.4 µM
[11] = HPLM + 10% dialyzed FBS, 46.1 µM
[12] = RPMI 5 mM glucose + 10% FBS, 0.000781 µM
[13] = RPMI 5 mM glucose + 10% FBS, 0.00234 µM
[14] = RPMI 5 mM glucose + 10% FBS, 0.00702 µM
[15] = RPMI 5 mM glucose + 10% FBS, 0.0211 µM
[16] = RPMI 5 mM glucose + 10% FBS, 0.0632 µM
[17] = RPMI 5 mM glucose + 10% FBS, 0.19 µM
[18] = RPMI 5 mM glucose + 10% FBS, 0.569 µM
[19] = RPMI 5 mM glucose + 10% FBS, 1.71 µM
[20] = RPMI 5 mM glucose + 10% FBS, 5.12 µM
[21] = RPMI 5 mM glucose + 10% FBS, 15.4 µM
[22] = RPMI 5 mM glucose + 10% FBS, 46.1 µM
[23] = RPMI 5 mM glucose + 10% dialyzed FBS, 0.000781 µM
[24] = RPMI 5 mM glucose + 10% dialyzed FBS, 0.00234 µM
[25] = RPMI 5 mM glucose + 10% dialyzed FBS, 0.00702 µM
[26] = RPMI 5 mM glucose + 10% dialyzed FBS, 0.0211 µM
[27] = RPMI 5 mM glucose + 10% dialyzed FBS, 0.0632 µM
[28] = RPMI 5 mM glucose + 10% dialyzed FBS, 0.19 µM
[29] = RPMI 5 mM glucose + 10% dialyzed FBS, 0.569 µM
[30] = RPMI 5 mM glucose + 10% dialyzed FBS, 1.71 µM
[31] = RPMI 5 mM glucose + 10% dialyzed FBS, 5.12 µM
[32] = RPMI 5 mM glucose + 10% dialyzed FBS, 15.4 µM
[33] = RPMI 5 mM glucose + 10% dialyzed FBS, 46.1 µM

CNCC(O)C(O)C(O)C(O)CO.O=C(O)c1ccc(-c2cc3cccnc3c(-c3ccc4nonc4c3)n2)cc1
cell viability [1]: 105% | cell viability [2]: 112% | cell viability [3]: 115% | cell viability [4]: 106% | cell viability [5]: 119% | cell viability [6]: 116% | cell viability [7]: 120% | cell viability [8]: 119% | cell viability [9]: 112% | cell viability [10]: 117% | cell viability [11]: 99.4% | cell viability [12]: 113% | cell viability [13]: 107% | cell viability [14]: 122% | cell viability [15]: 107% | cell viability [16]: 123% | cell viability [17]: 127% | cell viability [18]: 122% | cell viability [19]: 116% | cell viability [20]: 121% | cell viability [21]: 109% | cell viability [22]: 102% | cell viability [23]: 104% | cell viability [24]: 114% | cell viability [25]: 111% | cell viability [26]: 104% | cell viability [27]: 115% | cell viability [28]: 114% | cell viability [29]: 119% | cell viability [30]: 120% | cell viability [31]: 113% | cell viability [32]: 104% | cell viability [33]: 89.4%

CN(C)C[C@@H]1CC[N]2C=C(C3=C2C=CC=C3)C/4=C(/C(=O)NC4=O)C5=C[N](CCO1)C6=C5C=CC=C6
cell viability [1]: 99.6% | cell viability [2]: 98.3% | cell viability [3]: 100% | cell viability [4]: 106% | cell viability [5]: 105% | cell viability [6]: 110% | cell viability [7]: 107% | cell viability [8]: 100% | cell viability [9]: 101% | cell viability [10]: 97.5% | cell viability [11]: 30.7% | cell viability [12]: 92.9% | cell viability [13]: 94.8% | cell viability [14]: 100% | cell viability [15]: 98.6% | cell viability [16]: 108% | cell viability [17]: 104% | cell viability [18]: 95.7% | cell viability [19]: 96.2% | cell viability [20]: 97.6% | cell viability [21]: 83.4% | cell viability [22]: 55.3% | cell viability [23]: 110% | cell viability [24]: 106% | cell viability [25]: 108% | cell viability [26]: 109% | cell viability [27]: 103% | cell viability [28]: 102% | cell viability [29]: 114% | cell viability [30]: 117% | cell viability [31]: 105% | cell viability [32]: 93.7% | cell viability [33]: 58.9%

CN[S+](=O)([O-])CCc1ccc2[nH]cc(C3CCN(C)CC3)c2c1
cell viability [1]: 95.6% | cell viability [2]: 98.2% | cell viability [3]: 99.7% | cell viability [4]: 99.5% | cell viability [5]: 101% | cell viability [6]: 103% | cell viability [7]: 108% | cell viability [8]: 102% | cell viability [9]: 112% | cell viability [10]: 103% | cell viability [11]: 105% | cell viability [12]: 91.6% | cell viability [13]: 91.6% | cell viability [14]: 84.7% | cell viability [15]: 96% | cell viability [16]: 101% | cell viability [17]: 100% | cell viability [18]: 101% | cell viability [19]: 107% | cell viability [20]: 102% | cell viability [21]: 98% | cell viability [22]: 101% | cell viability [23]: 87.8% | cell viability [24]: 94.2% | cell viability [25]: 96.4% | cell viability [26]: 94.4% | cell viability [27]: 99.9% | cell viability [28]: 99% | cell viability [29]: 107% | cell viability [30]: 96.3% | cell viability [31]: 97.4% | cell viability [32]: 101% | cell viability [33]: 98.9%

COC1=CC=C(C=C1)C2CC(=N/N2C3=CC=C(C=C3)[S+](N)([O-])=O)\C4=CC=CC=C4 (configuration not stated)
cell viability [1]: 95.3% | cell viability [2]: 91.6% | cell viability [3]: 102% | cell viability [4]: 102% | cell viability [5]: 99.5% | cell viability [6]: 108% | cell viability [7]: 108% | cell viability [8]: 83.8% | cell viability [9]: 63.1% | cell viability [10]: 4.53% | cell viability [11]: 2.18% | cell viability [12]: 101% | cell viability [13]: 90% | cell viability [14]: 94% | cell viability [15]: 94.4% | cell viability [16]: 106% | cell viability [17]: 89.6% | cell viability [18]: 99.8% | cell viability [19]: 67.8% | cell viability [20]: 42% | cell viability [21]: 3.73% | cell viability [22]: 1.01% | cell viability [23]: 85.6% | cell viability [24]: 96.2% | cell viability [25]: 96.6% | cell viability [26]: 100% | cell viability [27]: 95.9% | cell viability [28]: 85.9% | cell viability [29]: 91.4% | cell viability [30]: 65.8% | cell viability [31]: 35.8% | cell viability [32]: 4.09% | cell viability [33]: 1.97%

C[C@@H]1CC[C@@]2(OC1)OC1CC3C4CC=C5CC(O)CCC5(C)C4CCC3(C)C1[C@@H]2C (some centres not stated)
cell viability [1]: 101% | cell viability [2]: 105% | cell viability [3]: 97% | cell viability [4]: 104% | cell viability [5]: 107% | cell viability [6]: 106% | cell viability [7]: 112% | cell viability [8]: 106% | cell viability [9]: 110% | cell viability [10]: 25.8% | cell viability [11]: 6.49% | cell viability [12]: 98.9% | cell viability [13]: 99.9% | cell viability [14]: 102% | cell viability [15]: 106% | cell viability [16]: 106% | cell viability [17]: 99.3% | cell viability [18]: 104% | cell viability [19]: 108% | cell viability [20]: 118% | cell viability [21]: 86.8% | cell viability [22]: 36.4% | cell viability [23]: 92% | cell viability [24]: 96.3% | cell viability [25]: 92.3% | cell viability [26]: 99.3% | cell viability [27]: 97% | cell viability [28]: 106% | cell viability [29]: 105% | cell viability [30]: 105% | cell viability [31]: 119% | cell viability [32]: 73.8% | cell viability [33]: 16.8%

O=C1CCc2ccc(OCCCCN3CCN(c4cccc(Cl)c4Cl)CC3)cc2N1
cell viability [1]: 99% | cell viability [2]: 101% | cell viability [3]: 99.7% | cell viability [4]: 85% | cell viability [5]: 110% | cell viability [6]: 98.9% | cell viability [7]: 104% | cell viability [8]: 104% | cell viability [9]: 89.9% | cell viability [10]: 106% | cell viability [11]: 87.3% | cell viability [12]: 106% | cell viability [13]: 110% | cell viability [14]: 106% | cell viability [15]: 74.3% | cell viability [16]: 107% | cell viability [17]: 101% | cell viability [18]: 102% | cell viability [19]: 100% | cell viability [20]: 106% | cell viability [21]: 105% | cell viability [22]: 78.3% | cell viability [23]: 92.8% | cell viability [24]: 98.9% | cell viability [25]: 96.9% | cell viability [26]: 80.5% | cell viability [27]: 98.7% | cell viability [28]: 106% | cell viability [29]: 100% | cell viability [30]: 89.2% | cell viability [31]: 93.6% | cell viability [32]: 94.1% | cell viability [33]: 73.1%

COc1cc([C@@H]2c3cc4c(cc3[C@@H](O[C@@H]3O[C@@H]5CO[C@@H](c6cccs6)O[C@H]5[C@H](O)[C@H]3O)[C@H]3COC(=O)[C@H]23)OCO4)cc(OC)c1O
cell viability [1]: 89.9% | cell viability [2]: 91.6% | cell viability [3]: 92.9% | cell viability [4]: 93% | cell viability [5]: 90.1% | cell viability [6]: 88.2% | cell viability [7]: 83% | cell viability [8]: 9.83% | cell viability [9]: 71.4% | cell viability [10]: 6.48% | cell viability [11]: 6.62% | cell viability [12]: 77.3% | cell viability [13]: 87.9% | cell viability [14]: 89.2% | cell viability [15]: 95.8% | cell viability [16]: 83.3% | cell viability [17]: 80.1% | cell viability [18]: 68% | cell viability [19]: 6.52% | cell viability [20]: 55.9% | cell viability [21]: 5.89% | cell viability [22]: 4.88% | cell viability [23]: 84.4% | cell viability [24]: 91.5% | cell viability [25]: 88.5% | cell viability [26]: 82.3% | cell viability [27]: 82.7% | cell viability [28]: 74.6% | cell viability [29]: 73.7% | cell viability [30]: 8.53% | cell viability [31]: 59% | cell viability [32]: 6.51% | cell viability [33]: 4.64%

N#CC(=C(/N)Sc1ccccc1N)/C(C#N)=C(\N)Sc1ccccc1N
cell viability [1]: 115% | cell viability [2]: 121% | cell viability [3]: 120% | cell viability [4]: 128% | cell viability [5]: 131% | cell viability [6]: 125% | cell viability [7]: 131% | cell viability [8]: 120% | cell viability [9]: 126% | cell viability [10]: 124% | cell viability [11]: 111%
